Laboratory results: the supplement of paper PMC12463676, “Small-molecule dissolution of stress granules by redox modulation benefits ALS models” (Nature Chemical Biology, 2025)

How the values were obtained:
lipoamide = compound: NC(=O)CCCCC1CCSS1 [lipoamide]; assay: thermal stability z-score vs DMSO; higher = more thermally stabilized by treatment; settings: HeLa, lipoamide concentration 100 µM
Procedure: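 Cellular thermal proteome profiling in HeLa cells. Cells were treated with 100 µM lipoamide for 1 h, with or without 1 mM arsenate for a further 1 h, then heated to ten temperatures (37-66.3 °C), and soluble protein was quantified by TMT mass spectrometry relative to 0.1% DMSO controls. The thermal stability score (sum of log2 fold changes minus the abundance score) was transformed to a z-score; mean of n = 3 experiments.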

potassium arsenate = compound: O=[As]([O-])(O)O.[K+] [potassium arsenate]; assay: as above; settings: HeLa; arsenate concentration 1 mM
Procedure: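 Cellular thermal proteome profiling in HeLa cells treated with 1 mM arsenate for 1 h (DMSO pretreatment), heated to ten temperatures (37-66.3 °C). Soluble protein was quantified by TMT mass spectrometry relative to DMSO controls; the thermal stability score was transformed to a z-score; mean of n = 3 experiments.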

[1] = arsenate co-treatment: 1 mM arsenate 1 h
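Note: each temperature applied for 3 min, abundance score taken as mean log2 fold change at the two lowest temperatures, z-score obtained by mean subtraction and division by SD.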

Chain of UniProt Q9GZV5 (Q9GZV5 whole entry): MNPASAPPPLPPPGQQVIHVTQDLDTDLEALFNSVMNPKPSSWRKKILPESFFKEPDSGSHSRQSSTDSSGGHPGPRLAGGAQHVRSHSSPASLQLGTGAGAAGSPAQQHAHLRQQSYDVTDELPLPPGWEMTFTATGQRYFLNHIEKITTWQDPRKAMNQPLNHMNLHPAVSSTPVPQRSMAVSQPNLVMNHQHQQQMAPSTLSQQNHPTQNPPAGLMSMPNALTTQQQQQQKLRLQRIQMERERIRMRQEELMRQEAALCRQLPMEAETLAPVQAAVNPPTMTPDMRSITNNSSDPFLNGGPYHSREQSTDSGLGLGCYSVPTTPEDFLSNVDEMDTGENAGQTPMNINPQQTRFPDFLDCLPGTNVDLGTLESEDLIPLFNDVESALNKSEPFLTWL
Chain of UniProt P12956 (P12956 whole entry): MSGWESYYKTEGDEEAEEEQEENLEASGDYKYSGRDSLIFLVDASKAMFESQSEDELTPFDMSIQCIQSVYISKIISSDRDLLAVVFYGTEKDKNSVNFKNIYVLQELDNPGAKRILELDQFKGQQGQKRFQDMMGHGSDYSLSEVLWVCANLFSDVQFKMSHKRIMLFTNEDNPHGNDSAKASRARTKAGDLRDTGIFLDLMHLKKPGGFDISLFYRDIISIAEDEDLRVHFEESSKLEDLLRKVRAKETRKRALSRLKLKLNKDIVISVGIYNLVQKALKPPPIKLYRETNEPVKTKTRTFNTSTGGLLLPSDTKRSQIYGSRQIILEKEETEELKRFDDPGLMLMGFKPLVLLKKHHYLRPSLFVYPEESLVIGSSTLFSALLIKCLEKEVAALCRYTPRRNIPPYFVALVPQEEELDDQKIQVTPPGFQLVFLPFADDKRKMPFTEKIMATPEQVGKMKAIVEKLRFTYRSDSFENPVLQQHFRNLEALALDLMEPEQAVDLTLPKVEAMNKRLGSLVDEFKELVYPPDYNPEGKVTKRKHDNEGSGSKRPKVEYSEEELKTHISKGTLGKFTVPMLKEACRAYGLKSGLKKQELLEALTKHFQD
Chain of UniProt Q6RFH5 (Q6RFH5 whole entry): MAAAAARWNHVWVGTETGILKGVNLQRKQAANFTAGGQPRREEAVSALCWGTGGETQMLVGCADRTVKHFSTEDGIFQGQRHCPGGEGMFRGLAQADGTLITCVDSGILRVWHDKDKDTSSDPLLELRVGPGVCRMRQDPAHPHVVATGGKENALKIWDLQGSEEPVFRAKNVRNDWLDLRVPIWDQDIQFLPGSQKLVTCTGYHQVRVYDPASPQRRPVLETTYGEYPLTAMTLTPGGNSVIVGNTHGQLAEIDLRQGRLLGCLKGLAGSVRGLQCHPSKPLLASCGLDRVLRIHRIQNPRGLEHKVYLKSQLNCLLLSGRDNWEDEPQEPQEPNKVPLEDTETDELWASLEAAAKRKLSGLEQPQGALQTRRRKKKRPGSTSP
Chain of UniProt Q8N9V3 (Q8N9V3 whole entry): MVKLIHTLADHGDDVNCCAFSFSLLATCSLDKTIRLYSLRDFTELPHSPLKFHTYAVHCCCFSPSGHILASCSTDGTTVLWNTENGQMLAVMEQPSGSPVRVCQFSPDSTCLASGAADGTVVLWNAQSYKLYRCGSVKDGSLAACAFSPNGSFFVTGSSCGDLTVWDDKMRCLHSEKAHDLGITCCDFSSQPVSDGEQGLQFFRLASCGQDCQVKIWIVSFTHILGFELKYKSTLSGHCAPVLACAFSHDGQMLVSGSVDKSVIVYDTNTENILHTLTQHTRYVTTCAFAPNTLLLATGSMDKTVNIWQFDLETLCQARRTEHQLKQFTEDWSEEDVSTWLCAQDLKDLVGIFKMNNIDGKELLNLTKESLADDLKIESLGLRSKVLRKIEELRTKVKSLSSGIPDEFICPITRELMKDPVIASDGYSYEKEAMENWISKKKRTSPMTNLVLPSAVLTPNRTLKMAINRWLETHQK
Chain of UniProt Q9C0E2 (Q9C0E2 whole entry): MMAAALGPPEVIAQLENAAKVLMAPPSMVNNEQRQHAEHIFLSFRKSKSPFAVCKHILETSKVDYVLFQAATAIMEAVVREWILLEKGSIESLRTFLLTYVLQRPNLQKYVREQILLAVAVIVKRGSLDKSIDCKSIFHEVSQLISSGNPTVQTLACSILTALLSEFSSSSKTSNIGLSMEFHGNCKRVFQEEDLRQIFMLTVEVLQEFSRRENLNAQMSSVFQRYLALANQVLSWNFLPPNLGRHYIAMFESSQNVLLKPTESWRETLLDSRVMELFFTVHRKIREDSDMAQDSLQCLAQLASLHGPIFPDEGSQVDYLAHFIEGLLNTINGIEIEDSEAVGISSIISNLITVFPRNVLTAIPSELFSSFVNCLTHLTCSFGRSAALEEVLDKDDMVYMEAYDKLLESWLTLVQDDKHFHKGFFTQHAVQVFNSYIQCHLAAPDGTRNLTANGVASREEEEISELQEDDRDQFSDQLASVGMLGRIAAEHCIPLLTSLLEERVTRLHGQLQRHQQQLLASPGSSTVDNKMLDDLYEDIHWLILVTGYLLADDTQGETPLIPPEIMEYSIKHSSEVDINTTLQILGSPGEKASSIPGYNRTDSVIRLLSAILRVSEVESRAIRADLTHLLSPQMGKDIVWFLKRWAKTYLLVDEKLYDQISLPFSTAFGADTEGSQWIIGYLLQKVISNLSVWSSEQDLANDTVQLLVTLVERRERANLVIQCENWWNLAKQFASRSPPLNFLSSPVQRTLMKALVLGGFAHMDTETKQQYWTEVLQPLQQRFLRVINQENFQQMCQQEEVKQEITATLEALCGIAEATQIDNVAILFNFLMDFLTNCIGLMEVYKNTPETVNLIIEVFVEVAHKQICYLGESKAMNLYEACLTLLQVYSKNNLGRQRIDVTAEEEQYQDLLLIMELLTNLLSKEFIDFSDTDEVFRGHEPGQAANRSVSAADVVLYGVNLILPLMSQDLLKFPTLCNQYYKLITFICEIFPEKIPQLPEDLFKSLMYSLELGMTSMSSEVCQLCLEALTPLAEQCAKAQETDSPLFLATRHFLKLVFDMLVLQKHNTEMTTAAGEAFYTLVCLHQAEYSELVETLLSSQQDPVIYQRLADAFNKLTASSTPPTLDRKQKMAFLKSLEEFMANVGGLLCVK
Chain of UniProt O76024 (O76024 whole entry): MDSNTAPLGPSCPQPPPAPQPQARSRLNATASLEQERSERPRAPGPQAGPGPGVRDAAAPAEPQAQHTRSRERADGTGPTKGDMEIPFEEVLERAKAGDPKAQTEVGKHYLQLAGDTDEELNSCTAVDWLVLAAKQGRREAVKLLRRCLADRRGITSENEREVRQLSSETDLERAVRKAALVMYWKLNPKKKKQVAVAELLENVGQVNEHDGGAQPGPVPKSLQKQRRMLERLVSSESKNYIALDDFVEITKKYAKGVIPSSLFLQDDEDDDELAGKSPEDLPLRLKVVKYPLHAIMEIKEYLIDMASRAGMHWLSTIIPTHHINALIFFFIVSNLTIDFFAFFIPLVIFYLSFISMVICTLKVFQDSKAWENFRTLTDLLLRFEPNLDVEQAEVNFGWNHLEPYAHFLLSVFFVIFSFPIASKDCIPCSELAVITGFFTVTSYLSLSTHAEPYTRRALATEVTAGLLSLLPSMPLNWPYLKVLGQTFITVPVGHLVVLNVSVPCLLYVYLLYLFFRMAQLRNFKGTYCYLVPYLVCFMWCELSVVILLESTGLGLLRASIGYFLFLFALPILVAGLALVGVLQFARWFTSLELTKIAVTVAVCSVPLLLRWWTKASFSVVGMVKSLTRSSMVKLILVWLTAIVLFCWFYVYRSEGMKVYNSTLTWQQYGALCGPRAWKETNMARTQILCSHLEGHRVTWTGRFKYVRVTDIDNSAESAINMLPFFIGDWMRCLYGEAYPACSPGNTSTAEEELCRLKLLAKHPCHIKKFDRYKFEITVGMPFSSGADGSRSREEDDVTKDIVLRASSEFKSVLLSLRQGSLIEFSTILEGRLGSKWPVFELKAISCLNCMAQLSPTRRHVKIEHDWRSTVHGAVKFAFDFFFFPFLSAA
Chain of UniProt Q5MNZ6 (Q5MNZ6 whole entry): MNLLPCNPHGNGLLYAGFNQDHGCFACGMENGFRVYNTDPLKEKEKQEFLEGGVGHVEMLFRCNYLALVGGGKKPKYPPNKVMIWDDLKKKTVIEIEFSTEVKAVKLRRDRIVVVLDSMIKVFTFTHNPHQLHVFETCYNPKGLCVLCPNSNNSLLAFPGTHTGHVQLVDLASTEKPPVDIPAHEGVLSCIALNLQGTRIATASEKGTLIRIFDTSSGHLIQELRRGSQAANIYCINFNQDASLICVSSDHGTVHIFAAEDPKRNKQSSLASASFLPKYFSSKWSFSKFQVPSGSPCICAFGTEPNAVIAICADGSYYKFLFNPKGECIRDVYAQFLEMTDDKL
Chain of UniProt Q96P53 (Q96P53 whole entry): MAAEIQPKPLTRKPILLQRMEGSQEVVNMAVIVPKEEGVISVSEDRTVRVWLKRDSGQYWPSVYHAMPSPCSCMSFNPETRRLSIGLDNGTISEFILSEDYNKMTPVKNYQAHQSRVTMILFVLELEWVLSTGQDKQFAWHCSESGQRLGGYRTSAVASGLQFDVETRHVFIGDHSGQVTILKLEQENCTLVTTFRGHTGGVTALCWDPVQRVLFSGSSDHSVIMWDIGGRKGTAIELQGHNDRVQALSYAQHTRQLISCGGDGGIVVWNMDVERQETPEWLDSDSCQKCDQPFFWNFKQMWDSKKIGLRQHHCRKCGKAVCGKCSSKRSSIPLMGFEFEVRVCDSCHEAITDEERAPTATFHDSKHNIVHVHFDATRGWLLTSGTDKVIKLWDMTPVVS
Chain of UniProt Q96HA8 (Q96HA8 whole entry): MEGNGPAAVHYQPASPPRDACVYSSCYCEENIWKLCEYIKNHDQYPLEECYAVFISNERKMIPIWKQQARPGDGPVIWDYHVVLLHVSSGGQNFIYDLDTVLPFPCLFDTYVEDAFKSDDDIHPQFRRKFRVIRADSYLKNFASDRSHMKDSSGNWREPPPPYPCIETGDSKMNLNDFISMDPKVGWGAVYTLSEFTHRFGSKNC

Target	thermal stability z-score (lipoamide; [1])	thermal stability z-score (lipoamide; arsenate co-treatment: none)	thermal stability z-score (potassium arsenate)
WDFY2 (UniProt Q96P53)	-0.402	-0.11	-0.0121
WDFY3 (UniProt Q8IZQ1)	-0.0589	0.0954	-0.0794
WDHD1 (UniProt O75717)	1.28	1.01	-0.982
WDR1 (UniProt O75083)	0.454	0.0649	-0.59
WDR3 (UniProt Q9UNX4)	-0.031	0.0101	-0.0987
WDR4 (UniProt P57081)	-0.105	-0.0364	0.00243
WDR5 (UniProt P61964)	1.18	0.552	0.234
WDR6 (UniProt Q9NNW5)	-0.00677	0.325	0.0479
WDR7 (UniProt Q9Y4E6)	-0.338	0.149	-0.351
WDR11 (UniProt Q9BZH6)	-0.207	-0.147	-0.267
WDR12 (UniProt Q9GZL7)	0.771	0.222	0.0663
WDR13 (UniProt Q9H1Z4)	-0.241	-0.115	-0.408
WDR18 (UniProt Q9BV38)	1.38	0.361	0.122
WDR19 (UniProt Q8NEZ3)	-0.121	0.369	0.81
WDR26 (UniProt Q9H7D7)	-0.326	-0.319	-0.602
WDR33 (UniProt Q9C0J8)	0.0589	-0.0858	-0.105
WDR34 (UniProt Q96EX3)	-0.251	-0.215	-0.776
WDR36 (UniProt Q8NI36)	0.0966	0.698	-0.285
WDR41 (UniProt Q9HAD4)	-0.212	-0.267	-0.285
WDR43 (UniProt Q15061)	-1.62	-1.02	-0.817
WDR44 (UniProt Q5JSH3)	0.411	0.42	0.635
WDR45 (UniProt Q9Y484)	-0.0374	0.11	0.292
WDR45B (UniProt Q5MNZ6)	0.848	0.63	0.162
WDR47 (UniProt O94967)	0.51	0.317	-0.0616

Target	thermal stability z-score (lipoamide; [1])	thermal stability z-score (lipoamide; arsenate co-treatment: none)	thermal stability z-score (potassium arsenate)
WDR48 (UniProt Q8TAF3)	0.197	0.3	1.13
WDR53 (UniProt Q7Z5U6)	0.164	0.989	1.07
WDR55 (UniProt Q9H6Y2)	0.00122	-0.679	-1.7
WDR61 (UniProt Q9GZS3)	0.936	0.285	-0.236
WDR62 (UniProt O43379)	-0.259	-0.153	-0.0901
WDR70 (UniProt Q9NW82)	0.397	0.0128	-0.891
WDR73 (UniProt Q6P4I2)	0.0525	-0.0893	-0.351
WDR74 (UniProt Q6RFH5)	-1.21	-0.713	-0.205
WDR75 (UniProt Q8IWA0)	0.0395	0.0658	0.152
WDR77 (UniProt Q9BQA1)	-0.484	0.78	-0.717
WDR81 (UniProt Q562E7)	-0.0547	-0.0815	0.105
WDR82 (UniProt Q6UXN9)	0.88	-0.211	-0.75
WDR89 (UniProt Q96FK6)	2.45	1.2	-12.3
WDR92 (UniProt Q96MX6)	-0.0904	-0.202	0.368
WDSUB1 (UniProt Q8N9V3)	0.698	0.878	0.867
WDYHV1 (UniProt Q96HA8)	0.206	0.157	-0.625
WEE1 (UniProt P30291)	-0.142	0.206	0.00265
WFS1 (UniProt O76024)	-0.47	-0.487	-0.022
WIPF2 (UniProt Q8TF74)	0.726	0.703	0.0475
WIPI1 (UniProt Q5MNZ9)	-0.175	-0.814	0.18
WIPI2 (UniProt Q9Y4P8)	0.0343	0.463	-0.0998
WLS (UniProt Q5T9L3)	-2.04	-1.12	0.0899
WNK1 (UniProt Q9H4A3)	0.149	-0.0327	0.386
WNT5A (UniProt P41221)	-0.888	-0.379	0.214

Target	thermal stability z-score (lipoamide; [1])	thermal stability z-score (lipoamide; arsenate co-treatment: none)	thermal stability z-score (potassium arsenate)
WRAP53 (UniProt Q9BUR4)	-0.113	-0.15	-0.337
WRB (UniProt O00258)	-0.618	0.0706	-0.55
WRNIP1 (UniProt Q96S55)	-0.272	-0.113	0.0587
WTAP (UniProt Q15007)	0.0767	0.0181	-0.059
WWC1 (UniProt Q8IX03)	-0.0147	-0.0692	-0.0726
WWC2 (UniProt Q6AWC2)	-0.0127	-0.0518	-0.129
WWP2 (UniProt O00308)	-0.0648	-0.0387	0.0179
WWTR1 (UniProt Q9GZV5)	-0.0845	-0.0566	0.377
XAB2 (UniProt Q9HCS7)	-0.104	-0.113	0.256
XIAP (UniProt P98170)	-0.12	-0.0464	-0.747
XPA (UniProt P23025)	0.0325	0.0998	-0.0786
XPNPEP1 (UniProt Q9NQW7)	1.5	0.794	-0.738
XPNPEP3 (UniProt Q9NQH7)	-0.37	0.018	-0.646
XPO1 (UniProt O14980)	0.211	0.4	1.4
XPO4 (UniProt Q9C0E2)	-0.237	-0.0735	-0.27
XPO5 (UniProt Q9HAV4)	-0.576	-0.108	-0.103
XPO6 (UniProt Q96QU8)	0.0641	0.00854	-0.339
XPO7 (UniProt Q9UIA9)	-0.0212	-0.0682	0.621
XPOT (UniProt O43592)	-0.645	-0.112	-0.212
XPR1 (UniProt Q9UBH6)	-0.458	-0.47	0.209
XRCC1 (UniProt P18887)	-0.0745	0.0492	-0.417
XRCC4 (UniProt Q13426)	2.01	1.89	1.24
XRCC5 (UniProt P13010)	-0.555	0.584	-0.403
XRCC6 (UniProt P12956)	-0.75	0.0871	-0.634
